Assay results reported in US20240390328A1, “PHARMACEUTICAL COMPOSITION CONTAINING AS ACTIVE INGREDIENT COMPOUND CONJUGATED TO G4 STRUCTURES OF CORONAVIRUSES FOR PREVENTION OR TREATMENT OF CORONAVIRUS INFECTIOUS DISEASES” (priority 2020, published 2024).
Where two headings read alike, the source gives them in different places.

Legend:
[1] = system: SARS-COV-2; experiment: microbe, parasite or virus in culture; assay type: cell-based; details: for suppression of SARS-COV-2 infection (N protein expression), in words: 0.08 to 50 μM; for IC50: read-out: IC50, suppressing SARS-COV-2 infection (N protein expression)
[2] = system: HCoV-OC43; experiment: HCoV-OC43 dose response curve analysis, virion production (plaque assay), HCT-8 cells; assay type: cell-based; details: 0.05 MOI, 72 hours after infection
[3] = system: SARS-COV-2 RNA G4, position 644 (NsP1); experiment: CD thermal melting analysis, G4 No. 2; assay type: binding; details: G4 No. 2, position 644, NsP1; 15 μM RNA G4, 30 μM compound
Protocol: (§1) For melting, the samples were heated at 25 to 95° C. at 2° C./min with a data pitch of 0.5° C. CD melting analyses were performed with and without G4-binding compounds. The ratio of RNA: G4-binding compound was set to a molar ratio of 1:2. 15 μM RNA G4 was treated with 30 μM G4-binding compound and incubated at room temperature in a buffer comprising 10 mM Tris-HCl (pH 7.5) and 100 mM KCl for 30 minutes. Ellipticity was measured at 265 nm. Thereafter, data were normalized and plotted in OriginPro 2017 to calculate Tm values.
(§2) In addition, 15 μM RNA G4 was treated with 30 μM compound and incubated, and a CD thermal melting curve of RNA G4 (15 μM) was obtained in the presence or absence of the G4-binding compound. Furthermore, the effect of G4-binding compounds on the stability of SARS-COV-2 G4 was confirmed by measuring the difference in melting temperature (ΔTm). The results are illustrated in FIGS. 6A and 6B.

[4] = system: SARS-COV-2 RNA G4, position 18296 (NsP12); experiment: CD thermal melting analysis, G4 No. 15; assay type: binding; details: G4 No. 15, position 18296, NsP12; 15 μM RNA G4, 30 μM compound
Protocol: as §1, §2

[5] = system: N1-WT-G4-644 (Nsp1 G4); experiment: In-vitro transcription/translation (IVT) analysis, EYFP reporter western blot, N1-WT-G4-644; assay type: biochemical, SARS-COV-2; details: N1-WT-G4-644, compound at 5 μM
[6] = system: SARS-COV-2 RNA G4, position 28903 (Nucleocapsid protein); experiment: CD thermal melting analysis, G4 No. 23; assay type: binding; details: G4 No. 23, position 28903, Nucleocapsid protein; 15 μM RNA G4, 30 μM compound
Protocol: as §1, §2

[7] = system: N1-WT-G4-353 (Nsp1 G4); experiment: In-vitro transcription/translation (IVT) analysis, EYFP reporter western blot, N1-WT-G4-353; assay type: biochemical, SARS-COV-2
[8] = system: SARS-COV-2 RNA G4, position 353 (NsP1); experiment: CD thermal melting analysis, G4 No. 1; assay type: binding; details: G4 No. 1, position 353, NsP1; 15 μM RNA G4, 30 μM compound
Protocol: as §1, §2

[9] = system: SARS-COV-2; experiment: microbe, parasite or virus in culture; assay type: cell-based; details: Vero cells, read-out: IC50, virion production
[10] = system: SARS-COV-2 RNA G4, position 28781 (Nucleocapsid protein); experiment: CD thermal melting analysis, G4 No. 22; assay type: binding; details: G4 No. 22, position 28781, Nucleocapsid protein; 15 μM RNA G4, 30 μM compound
Protocol: as §1, §2

[11] = system: HEK293T cells; experiment: Cell viability analysis (EZ Cytox), HEK293T cells; assay type: cell-based, Human; details: at 75 µM, after 48 hours
Protocol: (§3) Human embryonic kidney (HEK293T) cells and Vero cells were maintained in high-glucose Dulbecco's Modified Eagle's Medium (DMEM) supplemented with 10% fetal bovine serum (FBS) and 1% penicillin-streptomycin, and cultured in a humidified incubator at 37° C. and 5% CO2.
(§4) Cytotoxicity was analyzed using an EZ Cytox assay kit (DogenBio, Korea). HEK293T and Vero cells were put into a 96-well plate at a density of 2×10^4 cells/well in a medium volume of 100 μl/well and cultured at 37° C. for 24 hours. After 24 hours, the cells were treated with the G4-binding compound at various concentrations (0.1, 0.5, 1, 2.5, 5.5, 7.5, 10, 25, 50, and 75 μM) and cultured at 37° C. for 24 hours or 48 hours. Cell viability (%) was calculated by measuring the absorbance value at 455 nm (Luminescence multi-mode microplate reader Synergy™ Neo2) and using the following Equation 1. All experiments were performed in triplicate, and cells untreated with the compound were used as a control. DMEM with the EZ Cytox reagent was used as a blank.
(§5) The toxicity of PDS and PhenDC3 was confirmed in HEK293T cells and Vero cells. The results are illustrated in FIGS. 7A to 7D.

[12] = system: SARS-COV-2 RNA G4, position 3467 (NsP3); experiment: CD thermal melting analysis, G4 No. 6; assay type: binding; details: G4 No. 6, position 3467, NsP3; 15 μM RNA G4, 30 μM compound
Protocol: as §1, §2

[13] = system: SARS-COV-2 RNA G4, position 2714 (NsP2 + NsP3); experiment: CD thermal melting analysis, G4 No. 5; assay type: binding; details: G4 No. 5, position 2714, NsP2 + NsP3; 15 μM RNA G4, 30 μM compound
Protocol: as §1, §2

[14] = system: SARS-COV-2 RNA G4, position 25197 (Surface glycoprotein); experiment: CD thermal melting analysis, G4 No. 19; assay type: binding; details: G4 No. 19, position 25197, Surface glycoprotein; 15 μM RNA G4, 30 μM compound
Protocol: as §1, §2

[15] = system: Vero cells; experiment: Cell viability analysis (EZ Cytox), Vero cells; assay type: cell-based; details: up to 75 μM after 48 hours
Protocol: as §3, §4, §5

[16] = system: N1-Mut-G4-3467; assay type: biochemical, SARS-COV-2; details: N1-Mut-G4-3467, 5, 15, 25 and 50 μM
[17] = system: SARS-COV-2 RNA G4, position 4261 (NsP3); experiment: CD thermal melting analysis, G4 No. 8; assay type: binding; details: G4 No. 8, position 4261, NsP3; 15 μM RNA G4, 30 μM compound
Protocol: as §1, §2

[18] = system: SARS-COV-2 RNA G4, position 26746 (Membrane protein); experiment: CD thermal melting analysis, G4 No. 21; assay type: binding; details: G4 No. 21, position 26746, Membrane protein; 15 μM RNA G4, 30 μM compound
Protocol: as §1, §2

[19] = system: SARS-COV-2 RNA G4, position 1463 (NsP2); experiment: CD thermal melting analysis, G4 No. 3; assay type: binding; details: G4 No. 3, position 1463, NsP2; 15 μM RNA G4, 30 μM compound
Protocol: as §1, §2

[20] = system: SARS-COV-2 RNA G4, position 1574 (NsP2); experiment: CD thermal melting analysis, G4 No. 4; assay type: binding; details: G4 No. 4, position 1574, NsP2; 15 μM RNA G4, 30 μM compound
Protocol: as §1, §2

[21] = system: N1-WT-G4-3467 (Nsp3 G4); experiment: In-vitro transcription/translation (IVT) analysis, EYFP reporter western blot, N1-WT-G4-3467; assay type: biochemical, SARS-COV-2; details: N1-WT-G4-3467, compound at 50 μM
[22] = system: SARS-COV-2 RNA G4, position 14947 (NsP12); experiment: CD thermal melting analysis, G4 No. 12; assay type: binding; details: G4 No. 12, position 14947, NsP12; 15 μM RNA G4, 30 μM compound
Protocol: as §1, §2

[23] = system: SARS-COV-2 RNA G4, position 10261 (NsP5); experiment: CD thermal melting analysis, G4 No. 10; assay type: binding; details: G4 No. 10, position 10261, NsP5; 15 μM RNA G4, 30 μM compound
Protocol: as §1, §2

[24] = system: 25 G4s predicted for SARS-COV-2; experiment: CD thermal melting analysis, comparison of ΔTm over all G4s; assay type: binding
[25] = Severe acute respiratory syndrome coronavirus 2, Vero cells, 0.0125 MOI, 24 hours

## CN(C)c1ccc(Nc2c3ccc(NC(=O)CCN4CCCC4)cc3nc3cc(NC(=O)CCN4CCCC4)ccc23)cc1 [BRACO19, N-[9-[4-(dimethylamino)anilino]-6-(3-pyrrolidin-1-ylpropanoylamino)acridin-3-yl]-3-pyrrolidin-1-ylpropanamide]
[1]; Vero cells
  suppression of SARS-COV-2 infection (N protein expression), in words: suppressed SARS-COV-2 infection at high concentrations

## CCC1=C(C)c2cc3[nH]c(cc4nc(cc5c(CC)c(C)c(cc1n2)n5C)C(C)=C4CCC(=O)O)c(CCC(=O)O)c3C [NMM, 3-[18-(2-carboxyethyl)-7,12-diethyl-3,8,13,17,22-pentamethyl-23H-porphyrin-2-yl]propanoic acid]
[1]; Vero cells
  suppression of SARS-COV-2 infection (N protein expression), in words: suppressed SARS-COV-2 infection at high concentrations
[2]
  IC50: 2.1 µM

## C[n+]1cc(NC(=O)c2ccc3ccc4ccc(C(=O)Nc5cc6ccccc6[n+](C)c5)nc4c3n2)cc2ccccc21 [PhenDC3, 2-N, 9-N-bis(1-methylquinolin-1-ium-3-yl)-1,10-phenanthroline-2,9-dicarboxamide]
[3]
  Tm in ° C. with compound: 71.44 °C
  ΔTm: 23.71 °C
[4]
  Tm in ° C. with compound: 86.32 °C
  ΔTm: 27.49 °C
[5]
  EYFP expression reduced by: 50%
[6]
  Tm in ° C. with compound: 60.21 °C
  ΔTm: 3.1 °C
[7]; N1-WT-G4-353, compound at 50 μM
  EYFP expression reduced by: 90%
[7]; N1-WT-G4-353, concentrations less than 50 μM
  suppressing EYFP reporter expression: not effective
[8]
  Tm in ° C. with compound: 82.00 °C
  ΔTm: 10.41 °C
[9]; 24 hours after infection
  IC50: 24.5 µM
[9]; 48 hours after infection
  IC50: 23.2 µM
[10]
  Tm in ° C. with compound: 70.40 °C
  ΔTm: 5.7 °C
[11]
  reduction in viability, HEK293T cells: 25%
[12]
  Tm in ° C. with compound: 98.81 °C
  ΔTm: 33.25 °C
[13]
  Tm in ° C. with compound: 91.7 °C
  ΔTm: 20.56 °C
[14]
  Tm in ° C. with compound: 57.51 °C
  ΔTm: −13.68 °C
[15]
  cytotoxicity in Vero cells: no cytotoxicity was observed
[16]
  EYFP expression, concentration-dependent suppression: not suppressed
[17]
  Tm in ° C. with compound: 85.41 °C
  ΔTm: 35.1 °C
[18]
  Tm in ° C. with compound: 79.68 °C
  ΔTm: 17.02 °C
[19]
  Tm in ° C. with compound: 91.3 °C
  ΔTm: 35.78 °C
[20]
  Tm in ° C. with compound: 47.74 °C
  ΔTm: −5.64 °C
[21]
  reduction in EYFP expression: 70%
[22]
  Tm in ° C. with compound: 82.96 °C
  ΔTm: 25.75 °C
[23]
  Tm in ° C. with compound: 63.49 °C
  ΔTm: 15.6 °C
[24]; 15 μM RNA G4, 30 μM compound, FIGS. 6A and 6B
  effect on stability of SARS-COV-2 G4 (ΔTm), in words: significantly stabilized most G4s
[24]; among the 25 G4s predicted for SARS-COV-2
  proportion of the G4s with ΔTm>20° C.: 72%
[24]; of the 25 SARS-COV-2 G4s
  number of G4s Destabilized: 2

## C[n+]1ccccc1-c1c2nc(c(-c3cccc[n+]3C)c3ccc([nH]3)c(-c3cccc[n+]3C)c3nc(c(-c4cccc[n+]4C)c4ccc1[nH]4)C=C3)C=C2 [TMPyP2, 5,10,15,20-tetrakis(1-methylpyridin-1-ium-2-yl)-21,23-dihydroporphyrin]
[2]
  IC50: 11.7 µM

## C[n+]1ccc(-c2c3nc(c(-c4cc[n+](C)cc4)c4ccc([nH]4)c(-c4cc[n+](C)cc4)c4ccc([nH]4)c(-c4cc[n+](C)cc4)c4nc2C=C4)C=C3)cc1 [TMPyP4, 5,10,15,20-tetrakis(1-methylpyridin-1-ium-4-yl)-21,23-dihydroporphyrin]
[2]
  IC50: 2.8 µM

## CCN(CC)CCCC(C)Nc1ccnc2cc(Cl)ccc12 (stereo not drawn) [chloroquine, reference compound]
[1]; [25]
  IC50: 9.63 µM

## Cc1cccc(C)c1OCC(=O)N[C@@H](Cc1ccccc1)[C@@H](O)C[C@H](Cc1ccccc1)NC(=O)[C@H](C(C)C)N1CCCNC1=O [lopinavir, reference compound]
[1]; [25]
  IC50: 12.1 µM

## CCC(CC)COC(=O)[C@H](C)N[P@](=O)(OC[C@H]1O[C@@](C#N)(c2ccc3c(N)ncnn23)[C@H](O)[C@@H]1O)Oc1ccccc1 [remdesivir, reference compound]
[1]; Severe acute respiratory syndrome coronavirus 2, Vero, 24 h
  IC50: 8.78 µM
